Results as given in patent publication US8575094B2, “Use of type-B lantibiotic-based compounds having antimicrobial activity” (Novacta Biosystems Limited, priority 2007, dated 2013).
In brackets after ≈: the same amount, converted by molar mass. Like-named read-outs stand apart in the source and are kept apart here.

Experiments:
[1] = test system: C. difficile strain VPI 10463; format: in vivo; conditions: hamster, three times daily at 50 mg/kg/day, 5-day dosing period
Description: The in vivo efficacy of two type B Lantibiotics in the treatment of C. difficile infections was evaluated in the standard animal model for CDAD: clindamycin-induced cecitis in hamster (FIG. 3). Four groups of six animals were dosed orally with approximately 10^7 cells of C. difficile strain VPI 10463 and 24 hours later with a subcutaneous dose of 10 mg/kg clindamycin phosphate.

[2] = test system: Bacteroides thetaiotaomicron NCTC 10582; test: microbe, parasite or virus in culture; conditions: NCTC10582, read-out: Minimal Inhibitory Concentration (MIC)
C. difficile spores = test: Sporicidal activity: viable counts of C. difficile spores exposed to antibiotics; format: cell-based
Source text: An agent capable of killing, or preventing the successful germination of C. difficile spores would therefore be of considerable interest. To determine the effects of type B lantibiotics on C. difficile spores, suspensions of spores were exposed to antibiotics ([…]) and aliquots were taken at appropriate time points. The spores in each aliquot were filtered off and plated out on to Brazier's agar.

[3] = test system: Bifidobacterium longum NCTC 11818; test: microbe, parasite or virus in culture; conditions: NCTC11818, read-out: Minimal Inhibitory Concentration (MIC)
[4] = test system: Bifidobacterium adolescentis NCTC 11814; test: microbe, parasite or virus in culture; conditions: NCTC11814, read-out: Minimal Inhibitory Concentration (MIC)
E. faecium = test: microbe, parasite or virus in culture; conditions: Enterococcus faecium
Clostridium difficile = test: microbe, parasite or virus in culture; format: cell-based; conditions: Clostridioides difficile
Source text: Compounds I to VII were screened against twelve clinical isolates of Clostridium difficile.
In addition, compounds L to LIII were screened against […] isolates of Clostridium difficile.

E. coli = test: microbe, parasite or virus in culture; conditions: Escherichia coli
E. faecalis = test: microbe, parasite or virus in culture; conditions: Enterococcus faecalis
[5] = test system: Bacteroides fragilis NCTC 9343; test: microbe, parasite or virus in culture; conditions: NCTC9343, read-out: Minimal Inhibitory Concentration (MIC)
[6] = VRE, read-out: Minimal Inhibitory Concentration (MIC)

CN[C@H](CC(C)C)C(=O)N[C@H]1C(=O)N[C@@H](CC(N)=O)C(=O)N[C@H]2C(=O)N[C@H]3C(=O)N[C@H](C(=O)N[C@H](C(=O)O)c4cc(O)cc(O)c4-c4cc3ccc4O)[C@H](O)c3ccc(c(Cl)c3)Oc3cc2cc(c3O[C@@H]2O[C@H](CO)[C@@H](O)[C@H](O)[C@H]2O[C@H]2C[C@](C)(N)[C@H](O)[C@H](C)O2)Oc2ccc(cc2Cl)[C@H]1O [Vancomycin]
Survival of infected animals [1]: survived for the duration of the entire 5-day dosing period | MIC [2]: 64 µg/mL (≈ 44.2 µM) | Effect on C. difficile spore viability / germination (C. difficile spores; […]): no significant effect on spore viability | Viable counts of C. difficile spores (C. difficile spores; antibiotic at 100 µg/ml, time 24 h): 135 | MIC [3]: 1 to 2 µg/mL (≈ 0.69 to 1.38 µM) | MIC [4]: 1 µg/mL (≈ 0.69 µM) | MIC (E. faecium; ATCC19579, read-out: Minimal Inhibitory Concentration (MIC)): 0.5 µg/mL (≈ 0.345 µM) | MIC (E. faecium; [6]): > 64 µg/mL | MIC (Clostridium difficile; read-out: Minimal Inhibitory Concentration (MIC), C. difficile strain 027C): 1 µg/mL (≈ 0.69 µM) | MIC (Clostridium difficile; read-out: Minimal Inhibitory Concentration (MIC), C. difficile strain 27SM): 1 µg/mL (≈ 0.69 µM) | MIC (Clostridium difficile; read-out: Minimal Inhibitory Concentration (MIC), C. difficile strain 19126): 1 µg/mL (≈ 0.69 µM) | MIC (Clostridium difficile; read-out: Minimal Inhibitory Concentration (MIC), C. difficile strain 37779): 2 µg/mL (≈ 1.38 µM) | MIC (Clostridium difficile; read-out: Minimal Inhibitory Concentration (MIC), C. difficile strain B32): 1 µg/mL (≈ 0.69 µM) | MIC (Clostridium difficile; read-out: Minimal Inhibitory Concentration (MIC), C. difficile strain E4): 1 µg/mL (≈ 0.69 µM) | MIC (Clostridium difficile; read-out: Minimal Inhibitory Concentration (MIC), C. difficile strain E16): 0.5 µg/mL (≈ 0.345 µM) | MIC (Clostridium difficile; read-out: Minimal Inhibitory Concentration (MIC), C. difficile strain E101): 0.5 µg/mL (≈ 0.345 µM) | MIC (Clostridium difficile; read-out: Minimal Inhibitory Concentration (MIC), C. difficile strain P24): 0.5 µg/mL (≈ 0.345 µM) | MIC (Clostridium difficile; read-out: Minimal Inhibitory Concentration (MIC), C. difficile strain P49): 1 µg/mL (≈ 0.69 µM) | MIC (Clostridium difficile; read-out: Minimal Inhibitory Concentration (MIC), C. difficile strain P59): 1 µg/mL (≈ 0.69 µM) | MIC (Clostridium difficile; read-out: Minimal Inhibitory Concentration (MIC), C. difficile strain P62): 1 µg/mL (≈ 0.69 µM) | MIC (E. coli; ATCC25922, read-out: Minimal Inhibitory Concentration (MIC)): > 64 µg/mL | MIC (E. coli; read-out: Minimal Inhibitory Concentration (MIC)): > 64 µg/mL | MIC (E. faecalis; ATCC29212, read-out: Minimal Inhibitory Concentration (MIC)): 4 µg/mL (≈ 2.76 µM) | MIC (E. faecalis; [6]): > 64 µg/mL | MIC [5]: 32 µg/mL (≈ 22.1 µM)
